Values quoted from earlier work as cited in patent US20070275095A1, “TREATMENT OF INFLAMMATORY, AUTOIMMUNE, OR OTHER DISORDERS, USING AGENTS THAT REDUCE THE SEQUESTERING OF ZINC BY CALPROTECTIN” (priority 2005, published 2007).

Experiments:
[1] = tested on: neutrophil cells; conditions: Oyama et al 1997
[2] = tested on: calprotectin; conditions: Oyama et al 1997
[3] = tested on: tumor necrosis factor (TNF); conditions: same literature reports
[4] = tested on: calprotectin; conditions: zinc binding not measured directly; apoptosis measured (Yui et al 1998 and 2003, Mikami et al 1999)
[5] = clinical trials reviewed in Kidd 2002, Kern et al 2004, Esch et al 2004, Sturmey 2005

Molecule: CC(C)c1ccc2oc3nc(N)c(C(=O)O)cc3c(=O)c2c1 [amlexanox]
- suppression of calprotectin release by neutrophils [1]: impedes and suppresses the release of calprotectin by the neutrophils
- binding to calprotectin molecules in neutrophils [2]: bind to calprotectin molecules contained in the neutrophils

Molecule: O[C@H]1[C@H]2c3cc4c(cc3CN3CCC(=C[C@@H]1O)[C@H]23)OCO4 [lycorine]
- inhibition of tumor necrosis factor (TNF) [3]: appear to inhibit
- inhibition of zinc binding by calprotectin [4]: appear to inhibit zinc binding by calprotectin, to some extent

Molecule: O=C1N[C@@H]2C(=C[C@H](O)[C@@H](O)[C@H]2O)c2cc3c(c(O)c21)OCO3 [lycoricidinol]
- inhibition of tumor necrosis factor (TNF) [3]: appear to inhibit
- inhibition of zinc binding by calprotectin [4]: appear to inhibit zinc binding by calprotectin, to some extent

Molecule: secretin
- clinical trial outcome in autism [5]: mainly negative results
